Measured values from patent US9545105B2, “1-(heterocyclic carbonyl) piperidines” (BAYER INTELLECTUAL PROPERTY GMBH, priority 2010, dated 2017).
One block for each compound: values may come before it.

Key:
[1] = log P by HPLC on reversed-phase column (C 18), EEC Directive 79/831 Annex V.A8; format: physicochemical; conditions: HPLC on reversed-phase column (C 18); 40° C.; 0.1% aqueous formic acid and acetonitrile; linear gradient 10% to 90% acetonitrile
Procedure: In table 1, the log P values were determined in accordance with EEC Directive 79/831 Annex V.A8 by HPLC (High Performance Liquid Chromatography) on a reversed-phase column (C 18), using the method described below: Temperature: 40° C.; Mobile phases: 0.1% aqueous formic acid and acetonitrile; linear gradient from 10% acetonitrile to 90% acetonitrile. Calibration was carried out using unbranched alkan-2-ones (comprising 3 to 16 carbon atoms) with known log P values (determination of the log P values by the retention times using linear interpolation between two successive alkanones). lambda-max-values were determined using UV-spectra from 200 nm to 400 nm and the peak values of the chromatographic signals.

Alternaria solani = assay: In vivo preventive test on Alternaria solani (tomato); conditions: 500 ppm of active ingredient, evaluated 7 days after inoculation
Procedure: Solvent: 49 parts by weight of N,N-dimethylformamide Emulsifier: 1 part by weight of Alkylarylpolyglycolether To produce a suitable preparation of active compound, 1 part by weight of active compound is mixed with the stated amounts of solvent and emulsifier, and the concentrate is diluted with water to the desired concentration. To test for preventive activity, young plants are sprayed with the preparation of active compound at the stated rate of application. One day after this treatment, the plants are inoculated with an aqueous spore suspension of Alternaria solani. The plants remain for one day in an incubation cabinet at approximately 22° C. and a relative atmospheric humidity of 100%. Then the plants are placed in an incubation cabinet at approximately 20° C. and a relative atmospheric humidity of 96%. The test is evaluated 7 days after the inoculation. 0% means an efficacy which corresponds to that of the untreated control while an efficacy of 100% means that no disease is observed.

Pyrenophora teres = assay: In vivo preventive test on Pyrenophora teres (barley); conditions: 500 ppm of active ingredient, evaluated 7-9 days after inoculation
Procedure: Solvent: 49 parts by weight of N,N-dimethylformamide Emulsifier: 1 part by weight of alkylaryl polyglycol ether To produce a suitable preparation of active compound, 1 part by weight of active compound is mixed with the stated amounts of solvent and emulsifier, and the concentrate is diluted with water to the desired concentration. To test for preventive activity, young plants are sprayed with the preparation of active compound at the stated rate of application. One day after this treatment, the plants are inoculated with an aqueous spore suspension of Pyrenophora teres. The plants remain for 48 hours in an incubation cabinet at 22° C. and a relative atmospheric humidity of 100%. Then the plants are placed in a greenhouse at a temperature of approximately 20° C. and a relative atmospheric humidity of approximately 80%. The test is evaluated 7-9 days after the inoculation. 0% means an efficacy which corresponds to that of the untreated control while an efficacy of 100% means that no disease is observed.

logP [1]: 3.48
SMILES: Cn1nc(C(F)F)c(C(=O)N2CCCCC2c2ccccc2Cl)c1Cl (stereo not drawn) [Example 40]
Efficacy (Alternaria solani): 95%
Efficacy (Pyrenophora teres): 95%

logP [1]: 3.60
SMILES: Cn1nc(C(F)F)c(C(=O)N2CCCCC2c2cccc(Cl)c2)c1Cl (stereo not drawn) [Example 47]
Efficacy (Alternaria solani): 100%
Efficacy (Pyrenophora teres): 100%

logP [1]: 3.33
SMILES: Cc1cc(C(=O)N2CCCCC2c2ccc3c(c2)OCO3)c(C)o1 (stereo not drawn) [Example 58]
Efficacy (Alternaria solani): 78%

logP [1]: 2.44
SMILES: Cc1nn(C)c(F)c1C(=O)N1CCCCC1c1ccc2c(c1)OCO2 (stereo not drawn) [Example 60]
Efficacy (Alternaria solani): 94%
Efficacy (Pyrenophora teres): 80%

logP [1]: 4.29
SMILES: Cc1cc(C(=O)N2CCCCC2c2cccc(Cl)c2Cl)c(C)o1 (stereo not drawn) [Example 71]
Efficacy (Alternaria solani): 80%
Efficacy (Pyrenophora teres): 80%

logP [1]: 4.06
SMILES: Cn1nc(C(F)F)c(C(=O)N2CCCCC2c2ccc(Cl)cc2Cl)c1Cl (stereo not drawn) [Example 80]
Efficacy (Alternaria solani): 100%
Efficacy (Pyrenophora teres): 95%

logP [1]: 3.55
SMILES: Cn1nc(C(F)F)c(C(=O)N2CCCCC2c2ccccc2Br)c1Cl (stereo not drawn) [Example 90]
Efficacy (Alternaria solani): 90%
Efficacy (Pyrenophora teres): 95%

logP [1]: 3.44
SMILES: CCc1nn(C)c(F)c1C(=O)N1CCCCC1c1cccc(Br)c1 (stereo not drawn) [Example 94]
Efficacy (Alternaria solani): 100%
Efficacy (Pyrenophora teres): 70%

logP [1]: 3.11
SMILES: Cc1nn(C)c(F)c1C(=O)N1CCCCC1c1ccc(Br)cc1 (stereo not drawn) [Example 99]
Efficacy (Alternaria solani): 90%
Efficacy (Pyrenophora teres): 100%

logP [1]: 3.60
SMILES: Cn1nc(C(F)F)c(C(=O)N2CCCCC2c2ccc(Br)cc2)c1F (stereo not drawn) [Example 104]
Efficacy (Alternaria solani): 100%
Efficacy (Pyrenophora teres): 95%

logP [1]: 4.39
SMILES: Cc1cc(C(=O)N2CCCCC2c2ccc3ccccc3c2)c(C)o1 (stereo not drawn) [Example 120]
Efficacy (Alternaria solani): 80%
Efficacy (Pyrenophora teres): 70%

logP [1]: 3.87
SMILES: Cn1nc(C(F)F)c(C(=O)N2CCCCC2c2ccc3ccccc3c2)c1Cl (stereo not drawn) [Example 121]
Efficacy (Alternaria solani): 80%
Efficacy (Pyrenophora teres): 90%

logP [1]: 3.13
SMILES: Cc1nn(C)c(F)c1C(=O)N1CCCCC1c1ccc(Br)s1 (stereo not drawn) [Example 124]
Efficacy (Alternaria solani): 95%
Efficacy (Pyrenophora teres): 100%

logP [1]: 3.51
SMILES: CCc1nn(C)c(F)c1C(=O)N1CCCCC1c1ccc(Br)s1 (stereo not drawn) [Example 125]
Efficacy (Alternaria solani): 90%
Efficacy (Pyrenophora teres): 80%

logP [1]: 2.54
SMILES: Cc1nn(C)c(F)c1C(=O)N1CCCCC1Cc1ccccc1 (stereo not drawn) [Example 129]
Efficacy (Alternaria solani): 95%
Efficacy (Pyrenophora teres): 100%

logP [1]: 3.58
SMILES: Cc1cc(C(=O)N2CCCCC2Cc2ccccc2)c(C)o1 (stereo not drawn) [Example 132]
Efficacy (Alternaria solani): 90%
Efficacy (Pyrenophora teres): 90%

logP [1]: 3.59
SMILES: CC(c1ccccc1)C1CCCCN1C(=O)c1c(C(F)F)nn(C)c1Cl (stereo not drawn) [Example 137]
Efficacy (Alternaria solani): 100%
Efficacy (Pyrenophora teres): 100%

logP [1]: 3.44
SMILES: Cc1cccc(CC2CCCCN2C(=O)c2c(C(F)F)nn(C)c2F)c1 (stereo not drawn) [Example 144]
Efficacy (Alternaria solani): 100%
Efficacy (Pyrenophora teres): 100%

logP [1]: 3.59
SMILES: Cc1ccc(CC2CCCCN2C(=O)c2sc(C)nc2C(F)F)cc1 (stereo not drawn) [Example 148]
Efficacy (Alternaria solani): 94%
Efficacy (Pyrenophora teres): 95%

logP [1]: 3.55
SMILES: Cc1ccc(OCC2CCCCN2C(=O)c2c(C(F)F)nn(C)c2Cl)cc1 (stereo not drawn) [Example 149]
Efficacy (Alternaria solani): 95%
Efficacy (Pyrenophora teres): 95%

logP [1]: 3.35
SMILES: Cc1ccc(OCC2CCCCN2C(=O)c2c(C(F)F)nn(C)c2F)cc1 (stereo not drawn) [Example 150]
Efficacy (Alternaria solani): 100%
Efficacy (Pyrenophora teres): 100%

The next lines start with the compound.

SMILES: Cc1ccccc1C1CCCCN1C(=O)c1c(C(F)F)nn(C)c1Cl (stereo not drawn) [Example 5]
logP [1]: 3.37
Efficacy (Alternaria solani): 90%
Efficacy (Pyrenophora teres): 95%

SMILES: Cc1ccc(C2CCCCN2C(=O)c2c(C(F)F)nn(C)c2Cl)cc1C (stereo not drawn) [Example 8]
logP [1]: 3.87
Efficacy (Alternaria solani): 94%
Efficacy (Pyrenophora teres): 90%

SMILES: Cc1cc(C)cc(C2CCCCN2C(=O)c2c(C(F)(F)F)cn(C)c2F)c1 (stereo not drawn) [Example 34]
logP [1]: 4.27
Efficacy (Alternaria solani): 90%
Efficacy (Pyrenophora teres): 100%

SMILES: Cn1nc(C(F)F)c(C(=O)N2CCCCC2c2ccc(Cl)cc2)c1Cl (stereo not drawn) [Example 55]
logP [1]: 3.67
Efficacy (Alternaria solani): 95%
Efficacy (Pyrenophora teres): 80%

SMILES: CCc1nn(C)c(F)c1C(=O)N1CCCCC1c1ccc2c(c1)OCO2 (stereo not drawn) [Example 59]
logP [1]: 2.73
Efficacy (Alternaria solani): 78%
Efficacy (Pyrenophora teres): 70%

SMILES: Cn1nc(C(F)F)c(C(=O)N2CCCCC2c2ccc3c(c2)OCCO3)c1F (stereo not drawn) [Example 65]
logP [1]: 2.75
Efficacy (Alternaria solani): 90%
Efficacy (Pyrenophora teres): 100%

SMILES: CCc1nn(C)c(F)c1C(=O)N1CCCCC1c1cccc(Cl)c1Cl (stereo not drawn) [Example 72]
logP [1]: 3.62
Efficacy (Alternaria solani): 95%
Efficacy (Pyrenophora teres): 95%

SMILES: Cc1cc(C(=O)N2CCCCC2c2cccc(Br)c2)c(C)o1 (stereo not drawn) [Example 93]
logP [1]: 4.11
Efficacy (Alternaria solani): 90%
Efficacy (Pyrenophora teres): 95%

SMILES: Cn1nc(C(F)F)c(C(=O)N2CCCCC2c2cccc(Br)c2)c1Cl (stereo not drawn) [Example 96]
logP [1]: 3.71
Efficacy (Alternaria solani): 100%
Efficacy (Pyrenophora teres): 100%

SMILES: Cn1nc(C(F)F)c(C(=O)N2CCCCC2c2ccc(Br)cc2)c1Cl (stereo not drawn) [Example 103]
logP [1]: 3.78
Efficacy (Alternaria solani): 80%
Efficacy (Pyrenophora teres): 95%

SMILES: Cn1nc(C(F)F)c(C(=S)N2CCCCC2c2ccc(Br)cc2)c1F (stereo not drawn) [Example 105]
logP [1]: 4.29
Efficacy (Alternaria solani): 100%
Efficacy (Pyrenophora teres): 100%

SMILES: CCc1noc(C)c1C(=O)N1CCCCC1c1cccc(Oc2ccccc2)c1 (stereo not drawn) [Example 110]
logP [1]: 4.16
Efficacy (Alternaria solani): 78%

SMILES: CCc1nn(C)c(F)c1C(=O)N1CCCCC1c1cccc(Oc2ccccc2)c1 (stereo not drawn) [Example 112]
logP [1]: 3.96
Efficacy (Alternaria solani): 94%

SMILES: Cc1nn(C)c(F)c1C(=O)N1CCCCC1c1cccc(Oc2ccccc2)c1 (stereo not drawn) [Example 113]
logP [1]: 3.60
Efficacy (Alternaria solani): 94%
Efficacy (Pyrenophora teres): 90%

SMILES: Cn1nc(C(F)F)c(C(=O)N2CCCCC2c2cccc(Oc3ccccc3)c2)c1Cl (stereo not drawn) [Example 114]
logP [1]: 4.18
Efficacy (Alternaria solani): 90%
Efficacy (Pyrenophora teres): 80%

SMILES: Cc1cc(C(=O)N2CCCCC2c2cccc(I)c2)c(C)o1 (stereo not drawn) [Example 116]
logP [1]: 4.36
Efficacy (Alternaria solani): 78%

SMILES: Cn1nc(C(F)F)c(C(=O)N2CCCCC2Cc2ccccc2)c1F (stereo not drawn) [Example 134]
logP [1]: 3.09
Efficacy (Alternaria solani): 100%
Efficacy (Pyrenophora teres): 100%

SMILES: CCC(c1ccccc1)C1CCCCN1C(=O)c1c(C(F)F)nn(C)c1Cl (stereo not drawn) [Example 135]
logP [1]: 3.87
Efficacy (Alternaria solani): 95%
Efficacy (Pyrenophora teres): 94%

SMILES: Cc1cc(C(=O)N2CCCCC2Cc2ccccc2C)c(C)o1 (stereo not drawn) [Example 141]
logP [1]: 3.87
Efficacy (Alternaria solani): 90%

SMILES: Cc1nc(C(F)F)c(C(=O)N2CCCCC2Cc2ccccc2C)s1 (stereo not drawn) [Example 142]
logP [1]: 3.50
Efficacy (Alternaria solani): 94%
Efficacy (Pyrenophora teres): 95%

SMILES: Cc1cccc(CC2CCCCN2C(=O)c2cc(C)oc2C)c1 (stereo not drawn) [Example 143]
logP [1]: 3.96
Efficacy (Alternaria solani): 80%

SMILES: Cc1cccc(CC2CCCCN2C(=O)c2sc(C)nc2C(F)F)c1 (stereo not drawn) [Example 145]
logP [1]: 3.57
Efficacy (Alternaria solani): 75%
Efficacy (Pyrenophora teres): 80%

SMILES: Cc1ccc(CC2CCCCN2C(=O)c2cc(C)oc2C)cc1 (stereo not drawn) [Example 146]
logP [1]: 3.99
Efficacy (Alternaria solani): 95%

SMILES: Cc1ccc(CC2CCCCN2C(=O)c2c(C(F)F)nn(C)c2F)cc1 (stereo not drawn) [Example 147]
logP [1]: 3.46
Efficacy (Alternaria solani): 100%
Efficacy (Pyrenophora teres): 100%

SMILES: Cc1nc(C(F)F)c(C(=O)N2CCCCC2Cc2cccc(F)c2)s1 (stereo not drawn) [Example 151]
logP [1]: 3.19
Efficacy (Alternaria solani): 95%

SMILES: Cn1nc(C(F)F)c(C(=O)N2CCCCC2Cc2cccc(F)c2)c1F (stereo not drawn) [Example 153]
logP [1]: 3.13
Efficacy (Alternaria solani): 100%
Efficacy (Pyrenophora teres): 100%

SMILES: Cc1nc(C(F)F)c(C(=O)N2CCCCC2Cc2ccc(F)cc2)s1 (stereo not drawn) [Example 154]
logP [1]: 3.21
Efficacy (Alternaria solani): 89%
Efficacy (Pyrenophora teres): 100%

SMILES: Cc1cc(C(=O)N2CCCCC2Cc2ccc(F)cc2)c(C)o1 (stereo not drawn) [Example 155]
logP [1]: 3.57
Efficacy (Alternaria solani): 78%

SMILES: COc1ccccc1CC1CCCCN1C(=O)c1c(C(F)F)nn(C)c1F (stereo not drawn) [Example 157]
logP [1]: 3.17
Efficacy (Alternaria solani): 100%
Efficacy (Pyrenophora teres): 100%

SMILES: COc1ccccc1CC1CCCCN1C(=S)c1c(C(F)F)nn(C)c1F (stereo not drawn) [Example 160]
logP [1]: 3.87
Efficacy (Alternaria solani): 90%
Efficacy (Pyrenophora teres): 100%
